Reference: paper PMC9346611, “Impact of an Adenosine A2A Receptor Agonist and Antagonist on Binding of the Dopamine D2 Receptor Ligand [^11C]raclopride in the Rodent Striatum” (Molecular Pharmaceutics, 2022)
pKd: −log10 of the molar value. Where two headings read alike, the source gives them in different places. Marks after values point to notes of the source that are not given here.

Columns and labels:
[1] = target: dopamine D2/D3 receptors; design: method as in PMID 2528555; conditions: cited from earlier work
[2] = system: D2R; design: method as in PMID 11435907; conditions: human brain slices, striatal area; cited from earlier work
[3] = system: dopamine D2 receptor; conditions: 1 mg/kg
Procedure: Pretreatment of animals with a high dose of a specific (nonradioactive) receptor ligand is the standard method used in PET imaging to assess whether a PET tracer binds to its intended target. […] Only one PET scan was made in animals subjected to arterial blood sampling.
Blood samples with a volume of 0.10–0.13 mL were drawn from the femoral artery at 10, 20, 30, 40, 50, 60, and 90 s and 2, 3, 5, 7.5, 10, 15, 30, and 60 min after tracer administration. After the collection of each sample, an equal volume of saline with 1% heparin was infused into the artery to compensate for the blood volume loss. Larger blood samples (0.8–1 mL) were drawn at 5, 10, 30, and 60 min for [^11C]raclopride metabolite analysis. From each blood sample, a plasma sample was obtained by the centrifugation of whole blood for 5 min at 3000 g.

[4] = system: dopamine release; design: method as in PMID 10502311; conditions: low doses 0.01–1 μM; cited from earlier work
[5] = Heart rate monitoring with pulse oximeters during PET scan; assay type: in vivo; conditions: 1 mg/kg, persisted throughout the scan
[6] = system: D2R; design: method as in PMID 26100888; conditions: transiently transfected CHO cells; cited from earlier work
[7] = system: D2R; conditions: CHO cells co-transfected with A2AR and D2R; cited from earlier work
[8] = system: human D2R; design: method as in PMID 8982704, PMID 10617149; conditions: SH-SY5Y cells; cited from earlier work
[9] = system: dopamine release; design: method as in PMID 15525341; conditions: locally administered 3, 10, 50, and 100 μM; cited from earlier work
[10] = system: dopamine D2R; design: method as in PMID 1678519; conditions: rat striatal membrane preparations; cited from earlier work
[11] = system: D2R; design: method as in PMID 11435907; conditions: rat brain slices, striatal area; cited from earlier work
[12] = cited from earlier work
[13] = design: method as in PMID 1684818; conditions: cited from earlier work
[14] = system: D2R/D3R; design: method as in PMID 25871974; conditions: human, oral 300 mg; cited from earlier work

CCN1CCC[C@H]1CNC(=O)c1c(O)c(Cl)cc(Cl)c1OC (racemic) [[^11C]raclopride]
pKd ([1]; read-out: affinity (Kd) by equilibrium analysis): 8.00 | pKd ([1]; read-out: equilibrium dissociation constant KdVR by compartmental modeling): 8.21

CCNC(=O)[C@H]1O[C@@H](n2cnc3c(N)nc(NCCc4ccc(CCC(=O)O)cc4)nc32)[C@H](O)[C@@H]1O [CGS21680]
IC50 values of competition between [^125I]iodosulpiride and dopamine [2]: significant increase | k3, accumbens (2TCM) [3]: 0.012 ± 0.006*** min^–1 | k3, caudate-putamen (2TCM) [3]: 0.034 ± 0.014*** min^–1 | k3, cerebellum (2TCM) [3]: 0.028 ± 0.012*** min^–1 | k3, globus pallidus (2TCM) [3]: 0.029 ± 0.017*** min^–1 | k3, striatum (2TCM) [3]: 0.033 ± 0.013*** min^–1 | k3/k4, accumbens (2TCM) [3]: 0.87 ± 0.20 | k3/k4, caudate-putamen (2TCM) [3]: 1.28 ± 0.35 | k3/k4, cerebellum (2TCM) [3]: 1.19 ± 0.32 | k3/k4, globus pallidus (2TCM) [3]: 1.63 ± 3.6 | k4, accumbens (2TCM) [3]: 0.015 ± 0.008*** min^–1 | k4, caudate-putamen (2TCM) [3]: 0.026 ± 0.009** min^–1 | k4, cerebellum (2TCM) [3]: 0.023 ± 0.010** min^–1 | k4, globus pallidus (2TCM) [3]: 0.022 ± 0.021** min^–1 | k4, striatum (2TCM) [3]: 0.026 ± 0.009** min^–1 | electrically evoked dopamine release [4]: inhibit | heart rate, reduction in some animals down to [5]: 94 bpm | affinity of D2R for radioligands [^3H]quinpirole and [^3H]raclopride [6]: reduces the affinity | change of D2R numbers [7]: without any change | change of affinity of D2R for dopamine [7]: three- to fourfold decrease | change of affinity of D2R to agonists [8]: two- to threefold decreased | dopamine release in entire striatum and shell of nucleus accumbens [9]: increase | decrease of affinity of dopamine D2R for agonist L-(−)-[^3H]NPA [10]: 40% | IC50 values of competition between [^125I]iodosulpiride and dopamine [11]: significant increase

CCn1c(=O)c2c(nc(/C=C/c3ccc(OC)c(OC)c3)n2C)n(CC)c1=O [KW6002, istradefylline]
k3, accumbens (2TCM) [3]: 0.035 ± 0.015 min^–1 | k3, caudate-putamen (2TCM) [3]: 0.086 ± 0.027** min^–1 | k3, cerebellum (2TCM) [3]: 0.072 ± 0.028 min^–1 | k3, globus pallidus (2TCM) [3]: 0.087 ± 0.028* min^–1 | k3, striatum (2TCM) [3]: 0.085 ± 0.027** min^–1 | k3/k4, accumbens (2TCM) [3]: 0.91 ± 0.27 | k3/k4, caudate-putamen (2TCM) [3]: 2.02 ± 0.52 | k3/k4, cerebellum (2TCM) [3]: 1.75 ± 0.52 | k3/k4, globus pallidus (2TCM) [3]: 1.86 ± 0.54 | k3/k4, striatum (2TCM) [3]: 2.00 ± 0.53 | k4, accumbens (2TCM) [3]: 0.039 ± 0.013 min^–1 | k4, caudate-putamen (2TCM) [3]: 0.043 ± 0.012 min^–1 | k4, cerebellum (2TCM) [3]: 0.041 ± 0.011 min^–1 | k4, globus pallidus (2TCM) [3]: 0.048 ± 0.013 min^–1 | k4, striatum (2TCM) [3]: 0.043 ± 0.011 min^–1 | peripheral effects ([12]; rat, in vivo): does not have potent peripheral effects | tolerability after intraperitoneal administration ([12]; rats, doses up to 3 mg/kg): well tolerated

CCNC(=O)[C@H]1O[C@@H](n2cnc3c(N)ncnc32)[C@H](O)[C@@H]1O [NECA, 5’-N-ethylcarboxamide adenosine]
effect on heart rate, bolus of low doses [13]: tachycardia | effect on heart rate, high dose ([13]; total dose of 3 mg/kg infused over 60 min): rapid reduction in heart rate

Cn1c(=O)c2c(ncn2C)n(C)c1=O [caffeine]
affinity of D2R for radioligands [^3H]quinpirole and [^3H]raclopride [6]: reduces the affinity | increase of D2R/D3R availability in putamen and ventral striatum [14]: 5–6%
